Laboratory results reported in article PMC8811960, “A Novel 2-Carbon-Linked Dimeric Artemisinin With Potent Antileukemic Activity and Favorable Pharmacology” (Frontiers in Oncology, 2022).

Legend:
KG1a = test: alamarBlue growth inhibition, KG1a; type: cell-based; details: Homo sapiens, KG-1a, 48h, mean of 2 independent assays ± SD
Procedure: (§1) Cytotoxicity was assessed using alamarBlue assays (Life Technologies, Grand Island, NY) following manufacturer’s guidelines. Cell death was verified by Annexin V/7-aminoactinomycin D (7AAD) staining (BioLegend, San Diego, CA) per manufacturer’s guidelines.

ML2 = test: alamarBlue growth inhibition, ML2; type: cell-based; details: Homo sapiens, ML-2, ML2, 48h, mean of 2 independent assays ± SD
Procedure: as §1

Stability in plasma = type: in vitro ADME, human and mouse; details: species not given
Procedure: The metabolic stability of ART631 was assessed in human and mouse plasma and liver microsomes (LM). For phase I microsomal stability assays, analogs (10 µM in <1% acetonitrile) were incubated in PBS containing liver microsomes, with or without cofactors ([22]). Microsomal controls (without cofactors) were used to determine non-enzymatic degradation. All experiments were incubated at 37°C for 1h and performed in duplicate. Reactions were stopped with acetonitrile and analyzed as described below.
We compared the in vitro stability of ART576 and ART631 ( Table 3 ). ART576 was stable in plasma (<10% degradation), but unstable with degradation of >70% in human liver microsomes with co-factors and >90% in mouse liver microsomes with co-factors ( Table 3 ).

MV4;11 = test: alamarBlue growth inhibition, MV4;11; type: cell-based; details: Homo sapiens, MV4;11, 48h, mean of 2 independent assays ± SD
Procedure: as §1

MV4;11 AML xenografts = test: luc-labeled MV4;11 AML cell line xenograft; type: in vivo, NRG mice; details: MV4;11 xenograft, 15 mg/kg/d PO, 5 days on, 9 days off, 5 cycles
Excerpt: Immunodeficient NOD-Rag1^nullIL2rg^null (NRG) mice were purchased from Jackson Laboratory (Bar Harbor, ME), bred and housed at the University of Maryland Baltimore. Similar to our previous publication ([20]). mice were transplanted IV with luc-labeled human AML cell lines or cryopreserved AML patient cells on day -10, and baseline total body luminescence was quantified on day 0 by Xenogen bioluminescence imaging (Xenogen IVIS Spectrum; PerkinElmer, Waltham, MA). Mice were allocated to treatment groups so that each group had similar average day 0 luminescence, then groups were administered drugs per oral (PO; gavage). Luminescence of each mouse was assessed over time and compared with that mouse’s day 0 luminescence (fold-change AML burden). Clinical behavior, appearance, weight, and survival were also monitored.
Using our previously determined 5-day MTD SAV drug schedule (i.e. 5-day treatment cycles consisting of 15 mg/kg/d ART631 combined with 150 mg/kg/d VEN and 30 mg/kg/d SOR, followed by 9 days off drug; schematic in Figure 7A ), we assessed treatment of established human luc-labeled MV4;11 ( Figures 7B–D ) and MOLM14 AML ( Figures 8A–C ) cell line xenografts with VEN plus SOR plus ART631 in NRG mice ( Figures 7B , 8A ). […]

[1] = Maximum tolerated dose in NRG mice; type: in vivo
Procedure: Mice were dosed orally with ART631 at empirically determined maximally tolerated doses (MTDs) of 75 mg/kg ART631 as a single dose alone or 15 mg/kg as a multiple dose regimen (once daily x5), either alone or in combination with SOR (30 mg/kg/d) and VEN (150 mg/kg/d), for side-by-side comparison to the ART838, SOR and VEN combination evaluated previously ([20]). ART631, SOR, and VEN were mixed in vehicle and given as a single administration. Mice (n = 3/time point) were euthanized at 0.5, 1, 1.5, 2, 3, 4, 6, 8 and 12 h after dosing. ART631 was quantified in plasma as described below. Pharmacokinetic parameters were calculated from mean concentration-time data using non-compartmental methods in Phoenix WinNonlin version 8.3 (Certara, Princeton, NJ). The maximum plasma concentration (Cmax) and time to Cmax (Tmax) were the observed values. The AUClast was calculated using the log-linear trapezoidal method. AUC was extrapolated to infinity (AUCINF) by dividing the last quantifiable concentration by the terminal disposition rate constant (λz). The λz was determined from at least 3 points on the slope of the terminal phase of the concentration-time profile. The terminal half-life (T1/2) was determined by dividing 0.693 by λz. Apparent clearance (Cl/F) was calculated by dividing the dose administered by AUCINF. Apparent volume of distribution (V/F) was calculated by dividing Cl/F by λz. If the percent AUC extrapolated was >20% or the r^2 of λz was <0.85, the AUCINF, Cl/F, T1/2 and V/F were not reported.
In pilot experiments, the MTD of ART631 was determined, in NRG (host strain for our AML xenograft models) mice, to be 75 mg/kg PO (gavage) for a single dose, or 15 mg/kg/d PO x5d every 14 days. When ART631 was combined with 150 mg/kg/d VEN and/or 30 mg/kg/d SOR, as was done previously with ART838 ([20]), ART631 was tolerated at the multiple dose MTD, and no further dose adjustments were made. The PK of ART631 was assessed at the MTD.

## C=CCO/N=C(/C[C@H]1O[C@@H]2O[C@@]3(C)CC[C@H]4[C@H](C)CC[C@@H]([C@H]1C)[C@@]24OO3)[C@H]1O[C@@H]2O[C@@]3(C)CC[C@H]4[C@H](C)CC[C@@H]([C@H]1C)[C@@]24OO3 [ART631]
KG1a
  IC50: 29 ± 2 nM
ML2
  IC50: 34 ± 4 nM
Stability in plasma
  degradation in plasma: > 40%
MV4;11
  IC50: 27 ± 2 nM
MV4;11 AML xenografts
  antileukemic activity of monotherapy: no activity
[1]; ART631 at multiple dose MTD with 150 mg/kg/d VEN and/or 30 mg/kg/d SOR
  tolerability when combined with VEN and/or SOR: tolerated
[1]; mouse, in vivo, NRG mice, PO (gavage), single dose
  MTD: 75 mg/kg
[1]; mouse, in vivo, NRG mice, PO x5d every 14 days, read-out: MTD, multiple dose
  MTD at 5 d: 15 mg/kg/day
